This note sets out measurements from US20100022491A1, “4-HYDROXY-2-OXO-2,3-DIHYDRO-1,3-BENZOTHIAZOL-7YL COMPOUNDS FOR MODULATION OF B2-ADRENORECEPTOR ACTIVITY” (ASTRAZENECA AB, priority 2006, published 2010).

In the assay the target is T1, recombinant human α1D receptor (Homo sapiens, UniProt P25100).
T1 construct: expressed in transfected cells; host or cells: HEK293
T1 sequence (P25100 1-572): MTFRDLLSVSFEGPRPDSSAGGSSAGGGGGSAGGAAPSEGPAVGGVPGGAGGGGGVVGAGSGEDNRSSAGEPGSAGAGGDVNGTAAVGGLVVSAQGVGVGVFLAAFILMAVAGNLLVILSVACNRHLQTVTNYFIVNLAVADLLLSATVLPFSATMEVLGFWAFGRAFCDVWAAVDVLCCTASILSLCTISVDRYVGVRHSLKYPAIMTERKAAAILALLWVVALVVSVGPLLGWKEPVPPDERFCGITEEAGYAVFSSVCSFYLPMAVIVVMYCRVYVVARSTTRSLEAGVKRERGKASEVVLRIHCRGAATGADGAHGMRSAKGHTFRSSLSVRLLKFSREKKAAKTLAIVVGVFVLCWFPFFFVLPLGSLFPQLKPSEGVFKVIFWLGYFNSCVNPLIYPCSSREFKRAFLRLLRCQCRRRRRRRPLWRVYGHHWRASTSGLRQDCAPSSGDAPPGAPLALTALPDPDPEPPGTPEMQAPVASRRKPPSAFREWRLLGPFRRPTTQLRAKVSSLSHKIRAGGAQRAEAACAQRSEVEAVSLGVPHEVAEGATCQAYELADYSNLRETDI
In words: Adrenergic α1D selectivity binding assay ([3H]-prazosin). The following applies: inhibition of [3H]-prazosin (0.3 nM) binding, HEK293 membranes; read-out: α1 bind pIC50 (converted). In a few lines: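 HEK293 membranes with recombinant human α1D receptor incubated 2 h at room temperature with 0.3 nM [3H]-prazosin and compound in 50 mM HEPES, 1 mM EDTA, 0.1% gelatin, pH 7.4; BMY7378 (10 μM) defined non-specific binding. Filter-bound radioactivity counted; pIC50 from four-parameter logistic fit.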

Each structure is given as a SMILES string. Counter-ions that a name gives are not always drawn.

`O=C(CCNCCc1ccc(F)cc1F)N(CCNCCc1ccc(O)c2[nH]c(=O)sc12)C1CCCCCC1` [Example 55, N^1-Cycloheptyl-N^3-[2-(2,4-difluorophenyl)ethyl]-N^1-(2-{[2-(4-hydroxy-2-oxo-2,3-dihydro-1,3-benzothiazol-7-yl)ethyl]amino}ethyl)-β-alaninamide bis-trifluoroacetic acid salt]: the IC50 was 50.1 nM.
Turning to `O=C(CCNCCc1cccc(F)c1F)N(CCNCCc1ccc(O)c2[nH]c(=O)sc12)C1CCCCCC1` [Example 56, N^1-Cycloheptyl-N^3-[2-(2,3-difluorophenyl)ethyl]-N^1-(2-{[2-(4-hydroxy-2-oxo-2,3-dihydro-1,3-benzothiazol-7-yl)ethyl]amino}ethyl)-β-alaninamide bis-trifluoroacetic acid salt], the IC50 is 251 nM.
Regarding `O=C(CCNCCc1ccc(F)cc1Cl)N(CCNCCc1ccc(O)c2[nH]c(=O)sc12)C1CCCCCC1` [Example 57, N^3-[2-(2-Chloro-4-fluorophenyl)ethyl]-N^1-cycloheptyl-N^1-(2-{[2-(4-hydroxy-2-oxo-2,3-dihydro-1,3-benzothiazol-7-yl)ethyl]amino}ethyl)-β-alaninamide bis-trifluoroacetic acid salt], the IC50 is 50.1 nM.
As to `O=C(CCNCCc1cc(F)cc(F)c1)N(CCNCCc1ccc(O)c2[nH]c(=O)sc12)C1CCCCCC1` [Example 58, N^1-Cycloheptyl-N^3-[2-(3,5-difluorophenyl)ethyl]-N^1-(2-{[2-(4-hydroxy-2-oxo-2,3-dihydro-1,3-benzothiazol-7-yl)ethyl]amino}ethyl)-β-alaninamide bis-trifluoroacetic acid salt], the IC50 was 251 nM.
Then `O=C(CCNCCc1ccccc1)N(CCNCCc1ccc(O)c2[nH]c(=O)sc12)CC12CC3CC(CC(C3)C1)C2` [Example 59, N^1-(1-Adamantylmethyl)-N^1-(2-{[2-(4-hydroxy-2-oxo-2,3-dihydro-1,3-benzothiazol-7-yl)ethyl]amino}ethyl)-N^3-(2-phenylethyl)-β-alaninamide bis-trifluoroacetic acid salt], with 100 nM; and `O=C(CCNCCc1cccc(F)c1)N(CCNCCc1ccc(O)c2[nH]c(=O)sc12)CC12CC3CC(CC(C3)C1)C2` [Example 60, N^1-(1-Adamantylmethyl)-N^3-[2-(3-fluorophenyl)ethyl]-N^1-(2-{[2-(4-hydroxy-2-oxo-2,3-dihydro-1,3-benzothiazol-7-yl)ethyl]amino}ethyl)-β-alaninamide bis-trifluoroacetic acid salt], with 316 nM.
The value for `O=C(CCNCCc1ccc(F)cc1)N(CCNCCc1ccc(O)c2[nH]c(=O)sc12)CC12CC3CC(CC(C3)C1)C2` [Example 61, N^1-(1-Adamantylmethyl)-N^3-[2-(4-fluorophenyl)ethyl]-N^1-(2-{[2-(4-hydroxy-2-oxo-2,3-dihydro-1,3-benzothiazol-7-yl)ethyl]amino}ethyl)-β-alaninamide bis-trifluoroacetic acid salt] was 316 nM.
As for `O=C(CCNCCc1ccccc1)N(CCNCCc1ccc(O)c2[nH]c(=O)sc12)C1CCSCC1` [Example 62, N-(2-{[2-(4-Hydroxy-2-oxo-2,3-dihydro-1,3-benzothiazol-7-yl)ethyl]amino}ethyl)-N^3-(2-phenylethyl)-N^1-(tetrahydro-2H-thiopyran-4-yl)-β-alaninamide bis-trifluoroacetic acid salt], the IC50 was 63.1 nM.
`CCCC(CCC)N(CCNCCc1ccc(O)c2[nH]c(=O)sc12)C(=O)CCNCCc1cccc(F)c1` [Example 63, N^3-[2-(3-Fluorophenyl)ethyl]-N^1-(2-{[2-(4-hydroxy-2-oxo-2,3-dihydro-1,3-benzothiazol-7-yl)ethyl]amino}ethyl)-N^1-(1-propylbutyl)-β-alaninamide bis-trifluoroacetic acid salt]: the IC50 is 158 nM.
Then `CCCC(CCC)N(CCNCCc1ccc(O)c2[nH]c(=O)sc12)C(=O)CCNCCc1ccc(F)cc1` [Example 64, N^3-[2-(4-Fluorophenyl)ethyl]-N^1-(2-{[2-(4-hydroxy-2-oxo-2,3-dihydro-1,3-benzothiazol-7-yl)ethyl]amino}ethyl)-N^1-(1-propylbutyl)-β-alaninamide bis-trifluoroacetic acid salt], with 79.4 nM; and `CC(C)(CO)CN(CCNCCc1ccc(O)c2[nH]c(=O)sc12)C(=O)CCNCCc1ccccc1Cl` [Example 65, N^3-[2-(2-Chlorophenyl)ethyl]-N^1-(3-hydroxy-2,2-dimethylpropyl)-N^1-(2-{[2-(4-hydroxy-2-oxo-2,3-dihydro-1,3-benzothiazol-7-yl)ethyl]amino}ethyl)-β-alaninamide bis-trifluoroacetic acid salt], with 100 nM.
Regarding `CC(C)(CO)CN(CCNCCc1ccc(O)c2[nH]c(=O)sc12)C(=O)CCNCCc1cccc(Cl)c1` [Example 66, N^3-[2-(3-Chlorophenyl)ethyl]-N^1-(3-hydroxy-2,2-dimethylpropyl)-N^1-(2-{[2-(4-hydroxy-2-oxo-2,3-dihydro-1,3-benzothiazol-7-yl)ethyl]amino}ethyl)-β-alaninamide bis-trifluoroacetic acid salt], the IC50 is 251 nM.
As to `CC(C)(CO)CN(CCNCCc1ccc(O)c2[nH]c(=O)sc12)C(=O)CCNCCc1cccc(Cl)c1Cl` [Example 67, N^3-[2-(2,3-Dichlorophenyl)ethyl]-N^1-(3-hydroxy-2,2-dimethylpropyl)-N^1-(2-{[2-(4-hydroxy-2-oxo-2,3-dihydro-1,3-benzothiazol-7-yl)ethyl]amino}ethyl)-β-alaninamide bis-trifluoroacetic acid salt], the IC50 was 200 nM.
Consider `COc1ccc(CCNCCC(=O)N(CCNCCc2ccc(O)c3[nH]c(=O)sc23)C2CCCCC2)cc1` [Example 68, N^1-Cyclohexyl-N^1-(2-{[2-(4-hydroxy-2-oxo-2,3-dihydro-1,3-benzothiazol-7-yl)ethyl]amino}ethyl)-N^3-[2-(4-methoxyphenyl)ethyl]-β-alaninamide bis-trifluoroacetic acid salt], for which the IC50 is 200 nM.
As to `NS(=O)(=O)c1ccc(CCNCCC(=O)N(CCNCCc2ccc(O)c3[nH]c(=O)sc23)C2CCCCC2)cc1` [Example 69, N^3-{2-[4-(Aminosulfonyl)phenyl]ethyl}-N^1-cyclohexyl-N^1-(2-{[2-(4-hydroxy-2-oxo-2,3-dihydro-1,3-benzothiazol-7-yl)ethyl]amino}ethyl)-β-alaninamide bis-trifluoroacetic acid salt], the IC50 is 158 nM.
Regarding `O=C(CCNCCc1cccc(O)c1)N(CCNCCc1ccc(O)c2[nH]c(=O)sc12)C1CCCCC1` [Example 71, N^1-Cyclohexyl-N^1-(2-{[2-(4-hydroxy-2-oxo-2,3-dihydro-1,3-benzothiazol-7-yl)ethyl]amino}ethyl)-N^3-[2-(3-hydroxyphenyl)ethyl]-β-alaninamide bis-trifluoroacetic acid salt], the IC50 was 200 nM.
As for `O=C(CCNCCc1ccc(Cl)s1)N(CCNCCc1ccc(O)c2[nH]c(=O)sc12)C1CCCCC1` [Example 72, N^3-[2-(5-Chloro-2-thienyl)ethyl]-N^1-cyclohexyl-N^1-(2-{[2-(4-hydroxy-2-oxo-2,3-dihydro-1,3-benzothiazol-7-yl)ethyl]amino}ethyl)-β-alaninamide bis-trifluoroacetic acid salt], the IC50 was 398 nM.
In the case of `O=C(CCNCCc1ccc(F)c(F)c1)N(CCNCCc1ccc(O)c2[nH]c(=O)sc12)C1CCCCC1` [Example 73, N^1-Cyclohexyl-N^3-[2-(3,4-difluorophenyl)ethyl]-N^1-(2-{[2-(4-hydroxy-2-oxo-2,3-dihydro-1,3-benzothiazol-7-yl)ethyl]amino}ethyl)-β-alaninamide bis-trifluoroacetic acid salt], the IC50 is 398 nM.
With `O=C(CCNC[C@@H](O)c1ccccc1)N(CCNCCc1ccc(O)c2[nH]c(=O)sc12)C1CCCCC1` [Example 74, N^1-Cyclohexyl-N^1-(2-{[2-(4-hydroxy-2-oxo-2,3-dihydro-1,3-benzothiazol-7-yl)ethyl]amino}ethyl)-N^3-[(2S)-2-hydroxy-2-phenylethyl]-β-alaninamide bis-trifluoroacetic acid salt], the IC50 was 251 nM.
Regarding `O=C(CCNC[C@H](O)c1ccccc1)N(CCNCCc1ccc(O)c2[nH]c(=O)sc12)C1CCCCC1` [Example 75, N^1-Cyclohexyl-N^1-(2-{[2-(4-hydroxy-2-oxo-2,3-dihydro-1,3-benzothiazol-7-yl)ethyl]amino}ethyl)-N^3-[(2R)-2-hydroxy-2-phenylethyl]-β-alaninamide bis-trifluoroacetic acid salt], the IC50 was 251 nM.
Then `O=C(CCNCCc1ccc2c(c1)OCO2)N(CCNCCc1ccc(O)c2[nH]c(=O)sc12)C1CCCCC1` [Example 76, N^3-[2-(1,3-Benzodioxol-5-yl)ethyl]-N^1-cyclohexyl-N^1-(2-{[2-(4-hydroxy-2-oxo-2,3-dihydro-1,3-benzothiazol-7-yl)ethyl]amino}ethyl)-β-alaninamide bis-trifluoroacetic acid salt], with 158 nM.
